Drawing on the SangsterLogP compilation, this text covers logP and logD for 46 compounds.

Each structure is given as a SMILES string.

Data set [1] can be described thus: method code SF-AS, from DOI: 10.1016/0006-2952(90)90117-4, PMID: 2344368. The settings on record: pH 7.5.
The nature of data set [2]: method code SF-AS, from Kosanovic, D.; Dumanovic, D.; Jovanovic, J. (1988). Solubility in octanol And the octanol-water partition coefficients of some 4(5)- and 5-nitroimidazoles. 53(10)559-563.
Data set [3] is described as follows: method code SF-HPLC, from DOI: 10.1016/0378-5173(89)90133-6. The settings on record: pH 7.4.
Test in data set [4]: not given
This is another data set of the same source.

The nature of data set [5]: method code SF-AS, from DOI: 10.1081/jlc-120022394.
Data set [6] is described as follows: method code SF-GR, from DOI: 10.1021/jm00219a024, PMID: 926124.
The conditions of data set [7]: pH 7.4.
Test in data set [8]: not given
The source holds these as a separate data set.

Data set [9] can be described thus: method code SF-AS, from DOI: 10.1093/oxfordjournals.jbchem.a131041, PMID: 939756. Particulars: pH 7.4.
Test in data set [10]: not given
This is another data set of the same source.

Data set [11] can be described thus: method code SF-AS, from DOI: 10.1021/acs.jmedchem.5b00731, PMID: 26397825. The settings on record: pH 7.4.
A short description of data set [12]: method code SF-FL, from DOI: 10.1016/0006-2952(96)00248-1, PMID: 8687500.
Data set [13] is described as follows: method code SF-HPLC, from DOI: 10.1248/cpb.38.1906, PMID: 2268893. The settings on record: pH 6.9.
Data set [14] can be described thus: method code SF-AS, from DOI: 10.1002/jps.2600671008, PMID: 702280. The settings on record: pH 7.0.
A short description of data set [15]: method code SF, from DOI: 10.1002/etc.5620130110.
A short description of data set [16]: method code SF-HPLC, from DOI: 10.1016/j.nucmedbio.2010.03.011, PMID: 20610161. Particulars: pH 7.4.
A short description of data set [17]: method code SF-AS, from PMID: 7149911. Particulars: pH 8.9.
Data set [18] is described as follows: method code SF-AS, from Suikov, S.Yu.; Bondarenko, A.V.; Bogza, S.L.; Lutsyk, A.I. (2003). Distribution of 5-aminopyrazoles and 5-aminoisoxazoles in the octanol-water system. Ukr. Khim. Zh. (Russ. Ed.), 69(5/6)31-34.
Test in data set [19]: not given
The source holds these as a separate data set.

A short description of data set [20]: method code SF-AS, from DOI: 10.1021/jm00291a017, PMID: 5140011.
Test in data set [21]: not given
This is another data set of the same source.

Data set [22] can be described thus: method code SF, from DOI: 10.1021/jm030399c, PMID: 14711317. Particulars: pH 7.4.
Data set [23] is described as follows: method code SF, from DOI: 10.1016/0041-008x(67)90079-8.
Data set [24] in a line: method code SF-AS, from DOI: 10.1016/j.bmcl.2014.05.029, PMID: 24930836.
A short description of data set [25]: method code SF-TN, from Korenman, I M.; Gurevich, N.; Kulagina, G. (1973). Extraction of certain n-alkylamines from aqueous solutions. Zh. Prikl. Khim., 46(3)726-728.
A short description of data set [26]: from Wadhwa, L.; Chandiran, S.; Sharma, P. (2004). Alkyl esters of 6-methoxy-2-naphthylacetic acid as potential prodrugs - Synthesis, physicochemical properties, chemical stability and enzymatic …. The settings on record: pH 7.4.
Data set [27] can be described thus: method code SF-GLC, from DOI: 10.1021/jo01265a071.
Data set [28] can be described thus: method code SF-AS, from DOI: 10.1016/0891-5849(94)00112-w, PMID: 7744299. Particulars: pH 7.5.
Test in data set [29]: not given
The source holds these as a separate data set.

Data set [30] can be described thus: method code SF, from DOI: 10.1177/00220345800590120501, PMID: 6941993.
Data set [31] can be described thus: method code SF-HPLC, from DOI: 10.1016/j.ejps.2013.10.002, PMID: 24161609.
Data set [32] can be described thus: method code SF-HPLC, from DOI: 10.1016/j.bmcl.2004.01.062, PMID: 15026043. The settings on record: pH 5.5.
Data set [33] can be described thus: method code SF-AS, from DOI: 10.1021/jm00197a006, PMID: 533877.
Test in data set [34]: not given
The source holds these as a separate data set.

The nature of data set [35]: method code SF-AS, from DOI: 10.2116/analsci.8.761. Particulars: pH 6.0.

For `Oc1nc(Cl)c(Cl)cc1Cl`, the logP was 2.27.
Regarding `COc1cccc2c1C(=O)c1c(O)c3c(c(O)c1C2=O)C[C@@](O)(C(=O)CO)C[C@@H]3O[C@H]1C[C@H](NC(C)=O)[C@H](O)[C@H](C)O1`, in data set [1], the logD (commonly the decadic logarithm of the distribution of all forms, ionised or not, between an organic phase and buffer at a given pH) turned out to be 1.27.
`Cc1ncc([N+](=O)[O-])n1C` showed a logP in [2] of 0.31.
Regarding `OC(Cn1ccnc1)c1ccc(CCc2ccccc2)cc1` (stereo unspecified), the logD in data set [3] is 3.4.
For the compound `O=[N+]([O-])c1cncnc1`, the logP in data set [4] was -0.05.
For `CCOC(=O)C(=Cc1ccc(OC)c(OC)c1)NC=O`, the logP in data set [5] was 1.97.
`CCCNC(=O)NO` displayed a logP in data set [6] of -0.22.
`CCCCC(OC(Cc1ccccc1)C(=O)N1CCC(OCOC)CC1)C(=O)NC(CC1CCCCC1)[C@@H](O)CC(C(=O)NCCCNC(C)=O)C(C)C` (stereo partly specified) returned a logD in data set [7] of 4.3.
As to `O=C(O)P(=O)(O)O`, the logP in data set [8] was -2.
As to `COC1=C(C2=C(OC)C(=O)c3c4c(cc(OC)c3C2=O)CC(C)OC4=O)C(=O)c2c(OC)cc3c(c2C1=O)C(=O)OC(C)C3` (stereo unspecified), the logD in data set [9] is 0.69.
`Cc1nnn[nH]1` returned a logP in data set [10] of -0.49.
`COCCOCCOCCOCCOCN(C)c1ccc(C=C2CC(=Cc3ccc(N(C)COCCOCCOCCOCCOC)cc3)C2=O)cc1`: the pH-dependent lipophilicity (logD) in [11] was 2.54.
`COc1cccc2c1C(=O)c1c(O)c3c(c(O)c1C2=O)CC(O)(C(=O)CO)CC3OC1CC(NC(=O)OCc2ccc(OC3OC(C(=O)O)C(O)C(O)C3O)c([N+](=O)[O-])c2)C(O)C(C)O1` (stereo unspecified): the logP in [12] is -0.74.
Take `CCOC(=O)C(=Cc1ccc(OC)cc1)NC=O`: the logP in data set [5] is 2.22.
For `CON=C(C(=O)NC1C(=O)N2C(C(=O)OCOC(=O)C(C)(C)C)=C(CN(C=O)C(C)=C(CCC(C)=O)SC(C)=O)CSC12)c1csc(N)n1` (stereo unspecified), in data set [13], the log distribution coefficient (logD) is 2.16.
Compound `Clc1ccccn1` came in with a logD in [14] of 1.34.
For `CCCCC(OC(Cc1ccccc1)C(=O)N1CCC(OCOC)CC1)C(=O)NC(CC1CCCCC1)[C@@H](O)CC(C(=O)NCCCN/C(=N/C)NC#N)C(C)C` (stereo partly specified), the pH-dependent lipophilicity (logD) in [7] turned out to be 4.4.
`COc1cccc2c1C(=O)c1c(O)c3c(c(O)c1C2=O)CC(O)(CCO)CC3OC1CC(NC(C)=O)C(O)C(C)O1` (stereo unspecified): the logD in data set [1] was 1.56.
In turn, `COP(=O)(OC)C(O)C(Cl)(Cl)Cl` (stereo unspecified) yielded a logP in data set [15] of 1.7.
In turn, `O=[N+]([O-])c1ncn(CC(O)CF)n1` (stereo unspecified) yielded a logD in data set [16] of -0.46.
With `CN(N=O)C(N)=O`, the logD in data set [17] was -0.4.
Turning to `Cc1noc(N)c1-c1ccccc1`, the logP in data set [18] was determined as 2.02.
Regarding `CC(=O)O[C@H]1C(=O)[C@@]2(C)[C@H]([C@H](OC(=O)c3ccccc3)[C@]3(O)C[C@H](OC(=O)[C@@H](O)Cc4ccccc4)C(C)=C1C3(C)C)[C@]1(OC(C)=O)CO[C@@H]1C[C@@H]2O`, in [19], the logP was 2.9.
The compound `S=C1CCCN1` returned a logP in data set [20] of -0.05.
The compound `CC(Cl)Cl` showed a logP in data set [21] of 1.82.
For `O=C(NCCOCCNc1n[n+]([O-])c2ccccc2[n+]1[O-])c1cccc2cc3ccccc3nc12`, in data set [22], the logD amounted to 1.84.
`Clc1nc(Cl)c(Cl)c(Cl)c1Cl`: in [23], the logP is 3.53.
On to `Cc1cc(=O)oc2cc(OCC(O)Cn3nnc4ccccc43)cc(OCC(O)Cn3nnc4ccccc43)c12` (stereo unspecified), for which the logP in data set [24] came out at 0.48.
`CCCN` had a logP in data set [25] of 0.28.
`COC1=C(C2=C(OC)C(=O)c3cc4c(c(O)c3C2=O)C(=O)O[C@H](C)C4)C(=O)c2c(cc3c(c2O)C(=O)O[C@H](C)C3)C1=O` gave a logD in data set [9] of 0.37.
In turn, `Cc1c(-c2ccccc2)n[nH]c1N` yielded a logP in [18] of 1.65.
As to `CCCCOC(=O)Cc1ccc2cc(OC)ccc2c1`, the logD in [26] was 4.75.
Regarding `CCCCCl`, the logP in data set [27] stood at 2.39.
In data set [28], `CC(C)(C)N=O` came in with a logD of 0.91.
On to `CNC(N)=S`, for which the logP in data set [29] is -0.68.
For the compound `C=COC(C)=O`, the logP in data set [30] came to 0.6.
`O=C(O)/C=C/C(=O)O` displayed a logP in [31] of -0.04.
On to `CN(C)C(=O)Oc1ccc(CC(NC(=O)C2N(S(=O)(=O)c3cnn(C)c3)CSC2(C)C)C(=O)OCCOc2ccccc2)cc1` (stereo unspecified), for which the logD in data set [32] stood at 3.27.
As to `COc1cccc2c1C(=O)c1c(O)c3c(c(O)c1C2=O)CC(O)(C(C)=O)CC3OC1CC(NC(=O)OC2OC(C(=O)O)C(O)C(O)C2O)C(O)C(C)O1` (stereo unspecified), in data set [12], the logP was -2.
As for `COC(=O)Cc1ccc2cc(OC)ccc2c1`, in data set [26], the pH-dependent lipophilicity (logD) turned out to be 3.04.
For `CC(=O)C=NO`, in [33], the logP was determined as 0.39.
For `CC(=O)O[C@H]1C(=O)[C@@]2(C)[C@H]([C@H](OC(=O)c3ccccc3)[C@]3(O)C[C@H](OC(=O)[C@H](O)Cc4ccccc4)C(C)=C1C3(C)C)[C@]1(OC(C)=O)CO[C@@H]1C[C@@H]2O`, the logP in data set [19] is 2.9.
`Cc1cc2ncn(CC(O)COc3cc(OCC(O)Cn4cnc5cc(C)c(C)cc54)c4c(C)cc(=O)oc4c3)c2cc1C` (stereo unspecified) showed a logP in [24] of 0.61.
In the case of `COCCOCCOCCOCCOCN(C)c1ccc(C=C2CCC(=Cc3ccc(N(C)COCCOCCOCCOCCOC)cc3)C2=O)cc1`, the logD in data set [11] worked out at 2.73.
With `CCCC[N+](=O)[O-]`, in [34], the logP was 1.38.
Consider `OCc1cc(Br)cc(Br)c1O`, for which the logD in [35] was determined as 2.72.
